Data reported in US11299715B2, “Use of iNOS inhibitors to increase viral yield in culture” (priority 2013, dated 2022).

How the values were obtained:
[1] = test system: rHSV-1 d27-1 (d27-1) vector; test: ATA-HSV protocol: rHSV-1 d27-1 vector yield in V27 cell supernatants; type: cell-based, HSV-1
Description: (§1) The wtHSV-1 KOS strain and the ICP27-deficient derivatives of the wtHSV-1 KOS strain: vectors d27-1 (Rice and Knipe, J. Virol. (1990) 64:1704-1715), rHSV-rep2/cap2 and rHSV-EGFP (Kang et al., Gene Ther. (2009) 16:229-239) and their producer ICP27-complementing V27 cell line were obtained from AGTC (Alachua, Fla.). The wtHSV-1 MacIntyre strain, purchased from Advanced Biotechnologies Inc. (ABI, Columbia Md.) and wtHSV-1 KOS strain were propagated in Vero, 293 or HeLa cell lines. Infectious vector particles were harvested 72 hr postinfection by recovering culture supernatant. The titers of HSV-1 stocks in DNase resistant particles/ml (DRP/ml) were determined by Taqman assay. Viral genomes within crude culture medium were quantified via treatment in the presence of DNase I (50 U/ml final; Promega) at 37° C. for 60 min, followed by proteinase K (Invitrogen) digestion (1 U/ml) at 50° C. for 60 min, and then denatured at 95° C. for 30 min. Linearized plasmid pZero 195 UL36 (obtained from AGTC, Inc., Alachua, Fla.) was used to generate standard curves.
(§2) ATA (Sigma-A1895 Aurintricarboxylic acid practical grade, ≥85% (titration), powder) stock solution was generated as 500 μM concentration in 100 mM sodium bicarbonate water solution. ATA stock solution was further diluted in DMEM+/−10% fetal bovine serum (FBS, Hyclone, Waltham, Mass.) into concentration ranges of […] ATA (8.5-21 μgATA/ml). The HSV-1 infection at multiplicity of infection of 0.15 (MOI=0.15) (typically 6×10^5 cells in a 6-well plate) was performed in 40% (⅖ vol) of the total final media volume for 1-2 hrs and the remaining media (60% or ⅗ of the total final volume) was added during the dilution step. The cells were then incubated 72 hours and supernatant harvested to perform forming units per milliliter (PFU/ml) and DRP/ml titer assays.
In order to test whether ATA could increase the rHSV-1 d27-1 (d27-1) vector yield in V27 cells, ATA was applied to the media during the infection (Step 1) or dilution steps (Step 2) (FIG. 2A). The d27-1 infection at MOI=0.15 was performed in ⅖ of the final media volume and the remaining ⅗ of the media was added during dilution step.
In order to determine which concentrations and conditions for ATA addition have impact on HSV yields, the following experiments were conducted. ATA at varying concentrations was added to V27 cultures infected with the HSV-1 d27-1 vectors in either six-well plates (FIG. 2B) or T150 flasks (FIG. 2C) in two steps as follows. In Step 1 of the protocol, V27 cells were infected with 0.15 MOI of the rHSV vector in ⅖ of the final volume of DMEM with 10% FBS and 0-60 μM ATA concentrations. Cells were cultured for 1-2 hours at 37° C. to complete Step 1. In Step 2, the concentration of ATA was reduced to a range between 12-24 μM by the addition of ⅗ of final media volume. Cells were cultured for 70-74 hours at 37° C. and the supernatant harvested. Viral titers were expressed as Dnase Resistant Particles (DRP/ml) or Plaque Forming Units (pfu/ml) per ml and were determined as described above.
In this experiment, V27 cells were seeded into six well plates the day prior to infection at 6×10^5 cells/well. HSV 2× infection solution was prepared as follows: HSV-1 d27.1 stock was added to DMEM (no FBS) at 2× titer that the cells would be infected at final MOI 0.15. Several 2×ATA solution combinations were prepared containing either 100 μM or 40 μM ATA in DMEM and without FBS or with 20% FBS.
HSV 2× infection solution was mixed equal volumes of either DMEM−/+20% FBS or desired 2×ATA solution−/+20% FBS, vortexed, and 1 ml of infectious inoculum per well was added in Step 1. If wells contained ATA in Step 1, the concentration was 50 μM and all wells were incubated for 1-2 hrs. In Step 2, additional 1.5 ml of DMEM combinations−/+40 μM ATA and −/+20% FBS were added. If wells contained ATA whether in Step 1 or Step 2, the final ATA concentration was 20 μM. […]

[2] = test system: wtHSV-1 McIntyre strain; test: wtHSV-1 McIntyre strain propagation in 293, HeLa and Vero cells with ATA; type: cell-based, HSV-1
Description: as §1, §2
Supernatants containing virus were harvested after three days as described above. […] Finally, ATA also appeared to inhibit both types of HSV-1 viruses in HeLa cells. Two-way ANOVA; Bonferroni test; −ATA vs. +ATA: ***: p<0.001, ns: p>0.05; n=4 independent experiments.
For statistical calculations, a larger study with a set of ten independent experiments (n=10) was conducted in 6-well plates with or without ATA added during the infection step (Step 1) comparing replication-deficient d27-GFP and also wtHSV-1 McIntyre strain in order to investigate, whether ATA could increase the titer in the wtHSV-1 strain as well (FIG. 4B). ATA was added at […] to confluent cell monolayers, V27 cells for d27-1 or 293 cells for wtHSV-1 McIntyre, during the infection step (Step 1) and the cells were infected with vectors at MOI=0.15 while ATA was diluted 1 hr later to a final […] concentration.
In order to illuminate the ATA mechanism of action by human genome array and the fact that Vero and V27 are monkey-derived cell lines, wtHSV-1 propagation was tested in several human cell lines (FIGS. 4A-4B). A propagation of two wild type HSV-1 (wtHSV-1) strains, KOS and McIntyre, were compared in three cell lines: human embryonic kidney 293 (293 cells), human cervical cancer HeLa cells and African green monkey kidney epithelial Vero cells. The experiments were carried out in 10% FBS-containing media following the ATA I protocol scheme, where 50 μM ATA was supplemented during the infection step and further diluted to 20 μM ATA concentration (see Material and Methods).

[3] = serum-free media, ATA at Step 2, 20 μM final
[4] = serum-free media, ATA starting at 3 μM at Step 1

O=C(O)C1=CC(=C(c2ccc(O)c(C(=O)O)c2)c2ccc(O)c(C(=O)O)c2)C=CC1=O [ATA, 5-((3-carboxy-4-hydroxyphenyl)(3-carboxy-4-oxo-2,5-cyclohexadien-1-ylidene)methyl)-2-hydroxybenzoic acid]
d27-1 titer in supernatant (PFU/ml) ([1]; 50 μM ATA at infection step, 20 μM f.c., 72 h.p.i., control 1.4±0.2×10^7): 1.2±0.3×10^8 PFU/ml
d27-1 titer in supernatant (DRP/ml) ([1]; 50 μM ATA at infection step, 20 μM f.c., 72 h.p.i., control 4.0±0.3×10^7): 3.7±0.2×10^8 DRP/ml
increase of d27-1 titers in supernatant ([1]; 50 μM ATA at infection step, 20 μM f.c., harvest 72 h.p.i.): about 10 times
Cytopathic effect (CPE) at the time of harvest ([1]; 72 hpi, V27 monolayers, 100% CPE in the absence of ATA): 20-60%
HSV titers versus cultures without ATA ([1]; ATA added in Step 1 or Step 2, six-well plates and T150 flasks, 10% FBS): significantly higher
HSV-1 plaque formation or cell lysis in V27 cell monolayers ([1]; ATA treatment): delayed
DRP titer, ATA in serum-free media at dilution step (Step 2) [1, 3]: reduced below control level
PFU/ml titer, ATA in serum-free media at dilution step (Step 2) [1, 3]: below detection
DRP/ml titer, ATA in serum-free media at infection Step 1 [1, 4]: below the detection limit
PFU/ml titer, ATA in serum-free media at infection Step 1 [1, 4]: below the detection limit
d27-1 titers with ATA (DRP/ml) ([1]; summary statement): ≥ 4×10^8 DRP/ml
d27-1 titers with ATA (PFU/ml) ([1]; summary statement): at least 1×10^8 PFU/ml
increase of d27-1 yields in V27 cells supernatants ([1]; summary statement): 3-5 times
wtHSV-1 McIntyre titers in 293 cells ([2]; 50 μM ATA at Step 1, 20 μM after Step 2, 293 cells): reached the highest titers
propagation of HSV-1 McIntyre in HeLa cells ([2]; 50 μM ATA at Step 1, 20 μM after Step 2, HeLa cells): inhibit
yield of wtHSV-1 McIntyre in Vero cells ([2]; 50 μM ATA at Step 1, 20 μM after Step 2, Vero cells, 10% FBS): increased
wtHSV-1 McIntyre virus titer in 293 cells ([2]; 50 μM ATA at infection, diluted to 20 μM, 10% FBS, n=4, without ATA 1.4×10^8): 1.2×10^9 DRP/ml
increase of wtHSV-1 McIntyre titer after ATA addition ([2]; 293 cells, 6-well plates, n=10, ATA 50 μM at Step 1, final 20 μM, MOI 0.15): 9.1 times
wtHSV-1 McIntyre titer after ATA addition ([2]; 293 cells, n=10, ATA 50 μM at Step 1, final 20 μM, without ATA 3.3×10^8): 1.0×10^9 DRP/ml
293 or Vero titers with ATA, McIntyre ([2]; summary statement): up to 1×10^9 DRP/ml
increase of wt HSV-1 McIntyre yields ([2]; summary statement): 1 log
